# Test system: MV-4-11 cells
# Experiment: Gene expression microarray analysis (Affymetrix PrimeView) and GSEA
# Assay type: cell-based, human
# Parameters: RFU PODN (11730768_x_at) / Fold change /veh PODN (11730768_x_at) / RFU LINC00158 (11744669_a_at) / Fold change /veh LINC00158 (11744669_a_at) / RFU DUSP10 (11751237_a_at) / Fold change /veh DUSP10 (11751237_a_at) / RFU ID3 (11757404_x_at) / Fold change /veh ID3 (11757404_x_at) / RFU PLEKHG5 (11737974_s_at) / Fold change /veh PLEKHG5 (11737974_s_at) / RFU LRRC4B (11730491_at) / Fold change /veh LRRC4B (11730491_at) / RFU GIMAP4 (11747438_a_at) / Fold change /veh GIMAP4 (11747438_a_at) / RFU KRT8 (11758183_x_at) / Fold change /veh KRT8 (11758183_x_at) / RFU CNN1 (11734310_a_at) / Fold change /veh CNN1 (11734310_a_at) / RFU VPS37D (11726825_at) / Fold change /veh VPS37D (11726825_at) / RFU C10orf10 (11716522_x_at) / Fold change /veh C10orf10 (11716522_x_at) / RFU KIR2DL2 /// KIR2DL4 /// KIR2DL5A /// KIR2DL5B /// KIR2DS1 /// KIR2DS2 /// KIR2DS3 /// KIR2DS4 /// KIR3DL3 /// KIR3DL3 /// KIR3DS1 (11738374_at) / Fold change /veh KIR2DL2 /// KIR2DL4 /// KIR2DL5A /// KIR2DL5B /// KIR2DS1 /// KIR2DS2 /// KIR2DS3 /// KIR2DS4 /// KIR3DL3 /// KIR3DL3 /// KIR3DS1 (11738374_at) / RFU C1QL1 (11718748_at) / Fold change /veh C1QL1 (11718748_at) / RFU TMPRSS4 (11747572_a_at) / Fold change /veh TMPRSS4 (11747572_a_at) / RFU HAMP (11756126_x_at) / Fold change /veh HAMP (11756126_x_at) / RFU RNFT2 (11725882_a_at) / Fold change /veh RNFT2 (11725882_a_at) / RFU NR4A2 (11747474_a_at) / Fold change /veh NR4A2 (11747474_a_at) / RFU ABCC12 (11746883_a_at) / Fold change /veh ABCC12 (11746883_a_at) / RFU TMEM136 (11760407_x_at) / Fold change /veh TMEM136 (11760407_x_at) / RFU CLDN22 /// WWC2 (11732394_at) / Fold change /veh CLDN22 /// WWC2 (11732394_at) / RFU HLA-DPB1 (11760878_x_at) / Fold change /veh HLA-DPB1 (11760878_x_at) / RFU SPINT1 (11716480_a_at) / Fold change /veh SPINT1 (11716480_a_at) / RFU GAP43 (11754022_s_at) / Fold change /veh GAP43 (11754022_s_at) / RFU A4GNT (11735810_at) / Fold change /veh A4GNT (11735810_at) / RFU PRB3 (11715151_x_at) / Fold change /veh PRB3 (11715151_x_at) / RFU TUBB4B (11761932_at) / Fold change /veh TUBB4B (11761932_at) / RFU CAPN14 (11732068_a_at) / Fold change /veh CAPN14 (11732068_a_at) / RFU TMCC2 (11721928_a_at) / Fold change /veh TMCC2 (11721928_a_at) / RFU IRGQ (11745062_a_at) / Fold change /veh IRGQ (11745062_a_at) / RFU FAM174B (11720279_a_at) / Fold change /veh FAM174B (11720279_a_at) / RFU TMPRSS4 (11748680_a_at) / Fold change /veh TMPRSS4 (11748680_a_at) / RFU FAM212B (11763350_a_at) / Fold change /veh FAM212B (11763350_a_at) / RFU PLEKHG5 (11743358_a_at) / Fold change /veh PLEKHG5 (11743358_a_at) / RFU ZSCAN30 (11745921_a_at) / Fold change /veh ZSCAN30 (11745921_a_at) / RFU CMKLR1 (11741424_a_at) / Fold change /veh CMKLR1 (11741424_a_at) / RFU LOC101060620 /// MAPK8IP1 (11723275_at) / Fold change /veh LOC101060620 /// MAPK8IP1 (11723275_at) / RFU SPTSSB (11747773_x_at) / Fold change /veh SPTSSB (11747773_x_at) / RFU PRSS12 (11739890_at) / Fold change /veh PRSS12 (11739890_at) / RFU BIN1 (11741810_x_at) / Fold change /veh BIN1 (11741810_x_at) / RFU WNT11 (11732464_a_at) / Fold change /veh WNT11 (11732464_a_at) / RFU C10orf10 (11716521_a_at) / Fold change /veh C10orf10 (11716521_a_at) / RFU C5orf56 (11738089_at) / Fold change /veh C5orf56 (11738089_at) / RFU CYB561 (11721691_x_at) / Fold change /veh CYB561 (11721691_x_at) / RFU ANKRD19P (11752326_a_at) / Fold change /veh ANKRD19P (11752326_a_at) / RFU OR2T12 /// OR2T33 /// OR2T8 (11738714_s_at) / Fold change /veh OR2T12 /// OR2T33 /// OR2T8 (11738714_s_at) / RFU VCAN (11748164_a_at) / Fold change /veh VCAN (11748164_a_at) / RFU JSRP1 (11732532_at) / Fold change /veh JSRP1 (11732532_at) / RFU KRTAP10-11 (11738290_x_at) / Fold change /veh KRTAP10-11 (11738290_x_at) / RFU MYO3A (11730013_a_at) / Fold change /veh MYO3A (11730013_a_at) / RFU EBF3 (11725865_a_at) / Fold change /veh EBF3 (11725865_a_at) / RFU CAMK2N1 (11719241_x_at) / Fold change /veh CAMK2N1 (11719241_x_at) / RFU C5orf56 (11738088_a_at) / Fold change /veh C5orf56 (11738088_a_at) / RFU OLFML3 (11715873_a_at) / Fold change /veh OLFML3 (11715873_a_at) / RFU LOC100653217 /// NTM (11731650_a_at) / Fold change /veh LOC100653217 /// NTM (11731650_a_at) / RFU MAPK11 (11762145_a_at) / Fold change /veh MAPK11 (11762145_a_at) / RFU FIZ1 (11724087_x_at) / Fold change /veh FIZ1 (11724087_x_at) / RFU OASL (11726364_x_at) / Fold change /veh OASL (11726364_x_at) / RFU SOX15 (11748057_x_at) / Fold change /veh SOX15 (11748057_x_at) / RFU CD79A (11719716_a_at) / Fold change /veh CD79A (11719716_a_at) / RFU HIST1H1D (11736915_at) / Fold change /veh HIST1H1D (11736915_at) / RFU CASKIN2 (11723855_a_at) / Fold change /veh CASKIN2 (11723855_a_at) / RFU LOC730098 (11760151_x_at) / Fold change /veh LOC730098 (11760151_x_at) / RFU OR4N2 (11742367_at) / Fold change /veh OR4N2 (11742367_at) / RFU PRRT2 (11749266_a_at) / Fold change /veh PRRT2 (11749266_a_at) / RFU SNX32 (11753110_a_at) / Fold change /veh SNX32 (11753110_a_at) / RFU CDHR5 (11726645_a_at) / Fold change /veh CDHR5 (11726645_a_at) / RFU RCAN1 (11760418_a_at) / Fold change /veh RCAN1 (11760418_a_at) / RFU FAM167A (11723789_a_at) / Fold change /veh FAM167A (11723789_a_at) / RFU FAM26E (11764081_at) / Fold change /veh FAM26E (11764081_at) / RFU ISYNA1 (11749810_s_at) / Fold change /veh ISYNA1 (11749810_s_at) / RFU ACY1 (11761880_at) / Fold change /veh ACY1 (11761880_at) / RFU 11764098_at / Fold change /veh 11764098_at / RFU SAMD14 (11745864_x_at) / Fold change /veh SAMD14 (11745864_x_at) / RFU NPB (11741838_a_at) / Fold change /veh NPB (11741838_a_at) / RFU TMPRSS6 (11731388_a_at) / Fold change /veh TMPRSS6 (11731388_a_at) / RFU KRTAP10-2 (11738614_at) / Fold change /veh KRTAP10-2 (11738614_at) / RFU ARHGAP8 /// PRR5-ARHGAP8 (11727945_x_at) / Fold change /veh ARHGAP8 /// PRR5-ARHGAP8 (11727945_x_at) / RFU KRTAP5-7 /// NADSYN1 (11734609_at) / Fold change /veh KRTAP5-7 /// NADSYN1 (11734609_at) / RFU RASL12 (11751679_a_at) / Fold change /veh RASL12 (11751679_a_at) / RFU CDKN2B (11736163_a_at) / Fold change /veh CDKN2B (11736163_a_at) / RFU PRF1 (11729649_at) / Fold change /veh PRF1 (11729649_at) / RFU, ZNF638 /// ZNF638-IT1 / Fold change vs veh, ZNF638 /// ZNF638-IT1 / RFU, PANK3 / Fold change vs veh, PANK3 / RFU, SH3YL1 / Fold change vs veh, SH3YL1 / RFU, ZEB2 / Fold change vs veh, ZEB2 / RFU, NRIP1 / Fold change vs veh, NRIP1 / RFU, PTTG1IP / Fold change vs veh, PTTG1IP / RFU, CAPN2 / Fold change vs veh, CAPN2 / RFU, MED14 / Fold change vs veh, MED14 / RFU, SNORA58 / Fold change vs veh, SNORA58 / RFU, C1orf63 / Fold change vs veh, C1orf63 / RFU, LRRFIP1 / Fold change vs veh, LRRFIP1 / RFU, NDUFAF7 / Fold change vs veh, NDUFAF7 / RFU, SLC12A2 / Fold change vs veh, SLC12A2 / RFU, IBTK / Fold change vs veh, IBTK / RFU, ESF1 / Fold change vs veh, ESF1 / Fold change vs veh, TMEM50B / RFU, TAOK1 / Fold change vs veh, TAOK1 / RFU, ACBD3 / Fold change vs veh, ACBD3 / RFU, TMA16 / Fold change vs veh, TMA16 / RFU, RWDD3 / Fold change vs veh, RWDD3 / RFU, BCAT1 / Fold change vs veh, BCAT1 / RFU, EDEM3 / Fold change vs veh, EDEM3 / RFU, TMEM33 / Fold change vs veh, TMEM33 / RFU, WDR75 / Fold change vs veh, WDR75 / RFU, AHCTF1 / Fold change vs veh, AHCTF1 / RFU, TFRC / Fold change vs veh, TFRC / RFU, ZDHHC17 / Fold change vs veh, ZDHHC17 / RFU, NOM1 / Fold change vs veh, NOM1 / RFU, ARL8B / Fold change vs veh, ARL8B / RFU, ZBTB11 / Fold change vs veh, ZBTB11 / RFU, TAMM41 / Fold change vs veh, TAMM41 / RFU, KIAA1704 /// LOC100996395 / Fold change vs veh, KIAA1704 /// LOC100996395 / RFU, ING1 / Fold change vs veh, ING1 / RFU, TRMT61B / Fold change vs veh, TRMT61B / RFU, FUBP3 / Fold change vs veh, FUBP3 / RFU, TP53 / Fold change vs veh, TP53 / RFU, TNKS2 / Fold change vs veh, TNKS2 / RFU, ZFP14 / Fold change vs veh, ZFP14 / RFU, ACTR2 / Fold change vs veh, ACTR2 / RFU, PPP3R1 / Fold change vs veh, PPP3R1 / RFU, PIK3R1 / Fold change vs veh, PIK3R1 / RFU, HNRNPA1 / Fold change vs veh, HNRNPA1 / RFU, RNF170 / Fold change vs veh, RNF170 / RFU, ZNF28 / Fold change vs veh, ZNF28 / RFU, RNGTT / Fold change vs veh, RNGTT / RFU, OGT / Fold change vs veh, OGT / RFU, BRD1 / Fold change vs veh, BRD1 / RFU, MARS / Fold change vs veh, MARS / RFU, ZNF655 / Fold change vs veh, ZNF655 / RFU, FAHD1 / Fold change vs veh, FAHD1 / RFU, BDP1 / Fold change vs veh, BDP1 / RFU, LRRCC1 / Fold change vs veh, LRRCC1 / RFU, ARID1A / Fold change vs veh, ARID1A / RFU, ZNF146 / Fold change vs veh, ZNF146 / RFU, ZNF330 / Fold change vs veh, ZNF330 / RFU, GPN3 / Fold change vs veh, GPN3 / RFU, C9orf123 / Fold change vs veh, C9orf123 / RFU, N4BP2L2 / Fold change vs veh, N4BP2L2 / RFU, ARFIP1 / Fold change vs veh, ARFIP1 / RFU, FAM179B / Fold change vs veh, FAM179B / RFU, BCL10 / Fold change vs veh, BCL10 / RFU, UHRF1BP1L / Fold change vs veh, UHRF1BP1L / RFU, BET1 / Fold change vs veh, BET1 / RFU, CNOT2 / Fold change vs veh, CNOT2 / RFU, ZNF268 / Fold change vs veh, ZNF268 / Fold change vs veh, ZNF507 / RFU, DGCR2 / Fold change vs veh, DGCR2 / RFU, WDSUB1 / Fold change vs veh, WDSUB1 / Fold change vs veh, HSP90B1 /// MIR3652 / RFU, ADSS / Fold change vs veh, ADSS / RFU, GK / Fold change vs veh, GK / RFU, ZNF148 / Fold change vs veh, ZNF148 / RFU, TAF9 / Fold change vs veh, TAF9 / RFU, SLC1A5 / Fold change vs veh, SLC1A5 / RFU, SLMO2 / Fold change vs veh, SLMO2 / RFU, ABCC4 / Fold change vs veh, ABCC4 / RFU, LOC101060439 /// RAP1B / Fold change vs veh, LOC101060439 /// RAP1B / RFU, RFX7 / Fold change vs veh, RFX7 / RFU, GTPBP10 / Fold change vs veh, GTPBP10 / RFU, CNEP1R1 / Fold change vs veh, CNEP1R1 / RFU, BIVM-ERCC5 /// ERCC5 / Fold change vs veh, BIVM-ERCC5 /// ERCC5 / RFU, ILF3 / Fold change vs veh, ILF3 / RFU 11762660_at / Fold change /veh 11762660_at / RFU VCAN (11757783_s_at) / Fold change /veh VCAN (11757783_s_at) / RFU DDX43 (11728927_at) / Fold change /veh DDX43 (11728927_at) / RFU KRT8 (11758188_x_at) / Fold change /veh KRT8 (11758188_x_at) / RFU NKD1 (11759106_at) / Fold change /veh NKD1 (11759106_at) / RFU SRD5A1 (11742802_a_at) / Fold change /veh SRD5A1 (11742802_a_at) / RFU TPSAB1 /// TPSB2 (11721975_s_at) / Fold change /veh TPSAB1 /// TPSB2 (11721975_s_at) / RFU GSTM3 (11746129_a_at) / Fold change /veh GSTM3 (11746129_a_at) / RFU IL23R (11737362_x_at) / Fold change /veh IL23R (11737362_x_at) / RFU TMEM51 (11727254_a_at) / Fold change /veh TMEM51 (11727254_a_at) / RFU PIWIL2 (11732686_x_at) / Fold change /veh PIWIL2 (11732686_x_at) / RFU ORM1 (11744905_x_at) / Fold change /veh ORM1 (11744905_x_at) / RFU CCDC152 (11743942_at) / Fold change /veh CCDC152 (11743942_at) / RFU ECM1 (11717891_a_at) / Fold change /veh ECM1 (11717891_a_at) / RFU IL23R (11748794_a_at) / Fold change /veh IL23R (11748794_a_at) / RFU TNFAIP8L3 (11732012_x_at) / Fold change /veh TNFAIP8L3 (11732012_x_at) / RFU MBOAT4 (11741988_at) / Fold change /veh MBOAT4 (11741988_at) / RFU 11764193_at / Fold change /veh 11764193_at / RFU TMEM53 (11763286_at) / Fold change /veh TMEM53 (11763286_at) / RFU MAGEB2 (11727129_at) / Fold change /veh MAGEB2 (11727129_at) / RFU TMEM200A (11744735_a_at) / Fold change /veh TMEM200A (11744735_a_at) / RFU CCDC152 (11751479_a_at) / Fold change /veh CCDC152 (11751479_a_at) / RFU FAM211A (11726209_a_at) / Fold change /veh FAM211A (11726209_a_at) / RFU RGS16 (11746705_a_at) / Fold change /veh RGS16 (11746705_a_at) / RFU VCAN (11755009_s_at) / Fold change /veh VCAN (11755009_s_at) / RFU RHOB (11743442_s_at) / Fold change /veh RHOB (11743442_s_at) / RFU RGS16 (11720943_a_at) / Fold change /veh RGS16 (11720943_a_at) / RFU RGS16 (11720944_at) / Fold change /veh RGS16 (11720944_at) / RFU, VPS4B / Fold change vs veh, VPS4B / RFU, CREB1 / Fold change vs veh, CREB1 / RFU, DNAJC13 / Fold change vs veh, DNAJC13 / RFU, GNAQ / Fold change vs veh, GNAQ / RFU, CDK5R1 / Fold change vs veh, CDK5R1 / RFU, ZRANB3 / Fold change vs veh, ZRANB3 / RFU, CUL4A / Fold change vs veh, CUL4A / RFU, CCNY / Fold change vs veh, CCNY / RFU, UFL1 / Fold change vs veh, UFL1 / RFU, COG3 / Fold change vs veh, COG3 / RFU, DIAPH2 / Fold change vs veh, DIAPH2 / RFU, SKA2 / Fold change vs veh, SKA2 / RFU, AFF3 / Fold change vs veh, AFF3 / RFU, LMF1 / Fold change vs veh, LMF1 / RFU, IPO11 / Fold change vs veh, IPO11 / RFU, DFFB / Fold change vs veh, DFFB / RFU, FOXP1 / Fold change vs veh, FOXP1 / RFU, CARD8 / Fold change vs veh, CARD8 / RFU, STRN3 / Fold change vs veh, STRN3 / RFU, ADK / Fold change vs veh, ADK / RFU, RASSF2 / Fold change vs veh, RASSF2 / RFU, WIPF1 / Fold change vs veh, WIPF1 / RFU, LARP1B / Fold change vs veh, LARP1B / RFU, RASA1 / Fold change vs veh, RASA1 / RFU, RB1 / Fold change vs veh, RB1 / RFU, PPFIA1 / Fold change vs veh, PPFIA1 / RFU, MAT2A / Fold change vs veh, MAT2A / RFU, CCT5 / Fold change vs veh, CCT5 / RFU, WDR92 / Fold change vs veh, WDR92 / RFU, CUX1 / Fold change vs veh, CUX1 / RFU, TTC7A / Fold change vs veh, TTC7A / RFU, TMEM135 / Fold change vs veh, TMEM135 / RFU, DEPTOR / Fold change vs veh, DEPTOR / RFU, CPM / Fold change vs veh, CPM / RFU, DNAJB6 / Fold change vs veh, DNAJB6 / RFU, CACNA2D3 / Fold change vs veh, CACNA2D3 / RFU, DTX4 / Fold change vs veh, DTX4 / RFU, TFCP2 / Fold change vs veh, TFCP2 / RFU, GMCL1 /// GMCL1P1 / Fold change vs veh, GMCL1 /// GMCL1P1 / RFU, AEBP2 / Fold change vs veh, AEBP2 / RFU, SNHG1 /// SNORD22 /// SNORD25 /// SNORD26 /// SNORD27 /// SNORD28 /// SNORD29 /// SNORD31 / Fold change vs veh, SNHG1 /// SNORD22 /// SNORD25 /// SNORD26 /// SNORD27 /// SNORD28 /// SNORD29 /// SNORD31 / Fold change (Aza/veh), C12orf56 (ProbeSet 11735607_a_at) / Fold change (ACY-1035/veh), C12orf56 (ProbeSet 11735607_a_at) / Fold change (Aza/veh), FGFR1OP (ProbeSet 11751329_s_at) / Fold change (ACY-1035/veh), FGFR1OP (ProbeSet 11751329_s_at) / Fold change (Aza/veh), VPS36 (ProbeSet 11739960_a_at) / Fold change (ACY-1035/veh), VPS36 (ProbeSet 11739960_a_at) / RFU SYPL1 (11715823_x_at) / Fold change /veh SYPL1 (11715823_x_at) / RFU IGFBP7 (11715501_s_at) / Fold change /veh IGFBP7 (11715501_s_at) / RFU REEP3 (11722064_at) / Fold change /veh REEP3 (11722064_at) / RFU IGLL1 (11728026_x_at) / Fold change /veh IGLL1 (11728026_x_at): dose or concentration left out as unconfirmed
# Details: ProbeSet 11720154_at; LIST B
smiles,measurement,value
Nc1ncn([C@@H]2O[C@H](CO)[C@@H](O)[C@H]2O)c(=O)n1 [azacitidine],"RFU, NRIP1",462.80 RFU
